Assays:
[1] = target: Gram positive PolC (Bacillus subtilis, UniProt P13267); settings: known from the literature; cited from earlier work
[2] = tested on: DnaE polymerase; experiment: Inhibition of synthesis on SSB coated primed M13mp18 ssDNA by TMAU; assay type: biochemical, S. pyogenes
Method: (§1) To test DnaE for function with τδδ′ and β, replication reactions contained 70 ng (25 fmol) of 30-mer singly primed M13 mp18 ssDNA, 0.82 μg of S. pyogenes SSB, and 3.3 ng-300 ng of DnaE (25 fmol −2.3 pmol) in 23.5 μl of 20 mM Tris-HCl (pH 7.5), 4% glycerol, 0.1 mM EDTA, 5 mM dithiothreitol (DTT), 40 μg/ml BSA, 2 mM ATP, 8 mM MgCl2, and 60 μM each of dGTP and dCTP. When present, reactions included 43.3 ng of β and 10 ng of τδδ′. Reactions were preincubated for 3 min at 37° C., and then NaCl was added to 40 mM followed by another 2 min at 37° C. DNA synthesis was initiated upon addition of 1.5 μl of 1.5 mM dATP, 0.5 mM [α^32P]-dTTP (specific activity 2,000-4,000 cpm/pmol). Aliquots of 25 μl were removed at the indicated times and quenched with an equal volume (25 μl) of 1% SDS, 40 mM EDTA. One-half of the quenched reaction was analyzed for total deoxynucleotide incorporation using DE81 filter paper and the other half was analyzed on a 0.8% neutral agarose gel. The effect of TMAU was also examined, in which 100 μM TMAU in DMSO (2% DMSO final concentration) was present. In this case, replication was allowed to proceed for 1 min before being quenched with […] of 1% SDS, 40 mM EDTA.
(§2) Gram positive PolC is known to be inhibited by the antibiotic hydroxyphenylaza-uracil (“HPUra”) and its derivatives. In FIG. 21F, the PolC·τδδ′, β and DnaE were tested for inhibition of synthesis on SSB coated primed M13mp18 ssDNA by an HPUra derivative, trimethylanilino-uracil (“TMAU”).

[3] = target: T1, PolC·τδδ′, β (Streptococcus pyogenes, UniProt P0C0B7); experiment: as above; assay type: biochemical, S. pyogenes; settings: 100 μM TMAU, 2% DMSO, 1 min
T1 construct: made in house; host or cells: E. coli BL21(DE3) RecA-, pET11a (β: pET16b)
Method: as §1, §2

[4] = target: T2, S. aureus Pol III-L (Staphylococcus aureus, UniProt P0C1P9); experiment: PolydA-oligodT replication assay, stimulation by beta; assay type: biochemical; settings: linear polydA-oligodT template
T2 construct: made in house; host or cells: E. coli BL21(DE3), pET11PolC (β: pET16b)
Method: PolydA-oligodT was prepared as follows. […] OligodT35 was synthesized by Oligos etc.

[5] = target: E. coli Pol III core (Escherichia coli, UniProt P10443); settings: linear polydA-oligodT template
Text: DNA synthesis was quantitated using DE81 paper as described in Rowen et al., “Primase, the DnaG Protein of Escherichia coli. An Enzyme Which Starts DNA Chains,” J. Biol. Chem., 253:758-764 (1979), which is hereby incorporated by reference.

Chain of E. coli Pol III core (P10443 whole entry): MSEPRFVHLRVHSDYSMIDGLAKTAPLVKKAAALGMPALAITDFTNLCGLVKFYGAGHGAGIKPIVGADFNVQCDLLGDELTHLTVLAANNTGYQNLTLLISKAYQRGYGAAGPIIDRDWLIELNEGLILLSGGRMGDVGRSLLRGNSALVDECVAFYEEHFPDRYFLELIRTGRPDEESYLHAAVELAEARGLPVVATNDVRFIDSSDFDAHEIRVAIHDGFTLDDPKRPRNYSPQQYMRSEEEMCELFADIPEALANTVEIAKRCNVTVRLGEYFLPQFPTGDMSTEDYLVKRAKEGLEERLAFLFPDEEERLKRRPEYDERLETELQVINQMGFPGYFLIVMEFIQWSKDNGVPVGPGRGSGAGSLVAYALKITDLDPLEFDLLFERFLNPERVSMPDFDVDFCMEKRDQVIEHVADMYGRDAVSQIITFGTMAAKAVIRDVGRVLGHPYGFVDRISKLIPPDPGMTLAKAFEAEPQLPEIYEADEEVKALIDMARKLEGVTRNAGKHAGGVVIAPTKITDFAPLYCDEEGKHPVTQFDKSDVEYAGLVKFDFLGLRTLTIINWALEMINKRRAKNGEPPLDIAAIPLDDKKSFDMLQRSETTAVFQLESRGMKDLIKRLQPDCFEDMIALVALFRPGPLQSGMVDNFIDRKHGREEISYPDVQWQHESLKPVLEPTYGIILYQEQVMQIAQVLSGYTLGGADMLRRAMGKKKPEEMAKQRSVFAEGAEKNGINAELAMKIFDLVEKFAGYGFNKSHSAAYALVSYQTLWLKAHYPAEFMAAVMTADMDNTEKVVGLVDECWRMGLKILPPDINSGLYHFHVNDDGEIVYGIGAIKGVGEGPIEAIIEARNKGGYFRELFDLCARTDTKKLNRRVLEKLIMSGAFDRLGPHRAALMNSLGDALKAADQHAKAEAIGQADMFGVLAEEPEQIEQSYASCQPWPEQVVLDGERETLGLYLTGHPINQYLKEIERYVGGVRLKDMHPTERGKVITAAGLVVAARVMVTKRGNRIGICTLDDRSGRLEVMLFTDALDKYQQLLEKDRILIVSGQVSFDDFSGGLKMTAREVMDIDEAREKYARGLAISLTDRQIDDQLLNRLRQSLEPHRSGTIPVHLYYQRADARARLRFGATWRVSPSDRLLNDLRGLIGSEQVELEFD
Chain of E. coli Pol III core (P03007 whole entry, further chain): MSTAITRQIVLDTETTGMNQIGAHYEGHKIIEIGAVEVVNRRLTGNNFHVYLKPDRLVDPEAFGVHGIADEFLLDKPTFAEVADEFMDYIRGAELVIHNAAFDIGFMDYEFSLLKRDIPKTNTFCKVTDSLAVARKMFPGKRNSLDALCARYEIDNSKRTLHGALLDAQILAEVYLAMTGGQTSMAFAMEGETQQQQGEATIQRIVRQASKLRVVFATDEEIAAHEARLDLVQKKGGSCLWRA
Chain of E. coli Pol III core (P0ABS8 whole entry, further chain): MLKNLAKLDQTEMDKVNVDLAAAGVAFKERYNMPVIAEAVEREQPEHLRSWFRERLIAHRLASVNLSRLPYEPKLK
Chain of Gram positive PolC (P13267 whole entry): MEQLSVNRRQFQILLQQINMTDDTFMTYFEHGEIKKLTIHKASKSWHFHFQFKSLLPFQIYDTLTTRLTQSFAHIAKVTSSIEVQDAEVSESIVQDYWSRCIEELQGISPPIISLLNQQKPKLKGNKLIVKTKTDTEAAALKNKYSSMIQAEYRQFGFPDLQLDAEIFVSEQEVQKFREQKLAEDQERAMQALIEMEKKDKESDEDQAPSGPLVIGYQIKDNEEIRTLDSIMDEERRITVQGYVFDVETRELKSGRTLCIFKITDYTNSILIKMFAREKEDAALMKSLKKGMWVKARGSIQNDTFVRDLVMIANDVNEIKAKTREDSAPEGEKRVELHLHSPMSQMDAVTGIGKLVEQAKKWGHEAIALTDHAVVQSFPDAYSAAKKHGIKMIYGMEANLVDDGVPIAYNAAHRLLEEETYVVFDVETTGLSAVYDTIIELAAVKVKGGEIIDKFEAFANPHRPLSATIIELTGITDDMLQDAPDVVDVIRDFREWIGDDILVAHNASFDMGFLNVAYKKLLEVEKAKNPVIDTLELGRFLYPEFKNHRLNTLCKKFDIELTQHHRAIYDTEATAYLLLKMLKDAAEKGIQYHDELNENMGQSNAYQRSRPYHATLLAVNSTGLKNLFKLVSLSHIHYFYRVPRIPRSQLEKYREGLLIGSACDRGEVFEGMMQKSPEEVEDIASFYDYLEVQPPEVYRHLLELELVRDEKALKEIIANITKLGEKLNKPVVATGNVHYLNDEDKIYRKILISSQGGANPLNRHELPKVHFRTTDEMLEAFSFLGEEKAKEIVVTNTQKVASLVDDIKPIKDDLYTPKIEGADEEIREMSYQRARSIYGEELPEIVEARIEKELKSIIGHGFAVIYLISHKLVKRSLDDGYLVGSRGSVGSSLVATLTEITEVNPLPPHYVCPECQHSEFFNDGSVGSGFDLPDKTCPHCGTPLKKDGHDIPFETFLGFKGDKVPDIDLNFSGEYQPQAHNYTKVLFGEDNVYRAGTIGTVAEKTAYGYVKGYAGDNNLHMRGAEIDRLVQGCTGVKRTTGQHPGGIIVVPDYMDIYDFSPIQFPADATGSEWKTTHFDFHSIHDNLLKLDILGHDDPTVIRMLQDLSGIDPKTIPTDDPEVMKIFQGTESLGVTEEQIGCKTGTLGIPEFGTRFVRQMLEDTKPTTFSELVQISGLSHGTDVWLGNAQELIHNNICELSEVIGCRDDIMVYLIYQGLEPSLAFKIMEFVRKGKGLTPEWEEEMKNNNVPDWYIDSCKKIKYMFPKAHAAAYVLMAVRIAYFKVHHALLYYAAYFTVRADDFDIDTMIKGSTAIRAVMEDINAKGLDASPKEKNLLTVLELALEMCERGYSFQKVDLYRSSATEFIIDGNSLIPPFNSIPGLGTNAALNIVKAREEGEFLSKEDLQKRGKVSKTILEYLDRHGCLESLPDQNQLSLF
T1 sequence (P0C0B7 whole entry D425A/L426T/C427Y/G428V/L429V/S430F): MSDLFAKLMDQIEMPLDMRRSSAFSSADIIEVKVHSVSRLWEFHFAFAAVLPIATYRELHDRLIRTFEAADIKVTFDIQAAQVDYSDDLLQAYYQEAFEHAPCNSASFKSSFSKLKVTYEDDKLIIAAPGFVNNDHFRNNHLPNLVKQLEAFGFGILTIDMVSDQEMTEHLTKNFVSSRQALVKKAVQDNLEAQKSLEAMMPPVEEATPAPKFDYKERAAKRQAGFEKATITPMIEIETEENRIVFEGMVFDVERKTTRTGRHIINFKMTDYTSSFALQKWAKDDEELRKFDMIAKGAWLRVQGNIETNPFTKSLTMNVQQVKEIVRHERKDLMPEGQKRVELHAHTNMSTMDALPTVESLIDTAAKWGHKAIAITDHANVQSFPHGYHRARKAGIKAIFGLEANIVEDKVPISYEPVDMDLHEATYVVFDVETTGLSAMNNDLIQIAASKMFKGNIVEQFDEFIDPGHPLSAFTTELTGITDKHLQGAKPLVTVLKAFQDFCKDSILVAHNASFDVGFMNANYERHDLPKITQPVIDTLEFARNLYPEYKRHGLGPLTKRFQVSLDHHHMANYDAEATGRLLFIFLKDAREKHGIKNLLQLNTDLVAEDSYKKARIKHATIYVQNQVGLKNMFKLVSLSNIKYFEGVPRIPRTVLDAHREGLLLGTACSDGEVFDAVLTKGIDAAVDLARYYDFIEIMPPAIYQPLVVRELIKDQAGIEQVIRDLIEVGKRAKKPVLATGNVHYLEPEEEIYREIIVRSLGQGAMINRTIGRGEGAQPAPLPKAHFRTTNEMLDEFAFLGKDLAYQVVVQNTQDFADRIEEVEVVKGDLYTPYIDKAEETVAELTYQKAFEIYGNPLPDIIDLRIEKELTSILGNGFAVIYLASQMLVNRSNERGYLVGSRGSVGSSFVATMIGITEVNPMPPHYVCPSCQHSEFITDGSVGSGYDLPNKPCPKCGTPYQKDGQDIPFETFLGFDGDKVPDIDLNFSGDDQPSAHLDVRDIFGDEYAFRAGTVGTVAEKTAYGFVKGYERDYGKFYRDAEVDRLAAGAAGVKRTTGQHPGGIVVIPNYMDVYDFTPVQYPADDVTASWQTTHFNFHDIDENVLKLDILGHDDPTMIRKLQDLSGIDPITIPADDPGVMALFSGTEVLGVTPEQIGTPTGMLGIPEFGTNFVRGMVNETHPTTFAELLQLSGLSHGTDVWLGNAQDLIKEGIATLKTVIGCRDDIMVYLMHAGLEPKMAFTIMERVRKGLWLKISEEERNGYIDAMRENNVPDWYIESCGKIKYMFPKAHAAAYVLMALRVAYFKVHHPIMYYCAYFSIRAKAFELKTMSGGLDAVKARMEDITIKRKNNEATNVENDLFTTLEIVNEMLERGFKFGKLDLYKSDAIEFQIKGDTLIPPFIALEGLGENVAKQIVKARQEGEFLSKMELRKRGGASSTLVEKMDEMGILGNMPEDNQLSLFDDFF

O=c1cc(N=Nc2ccc(O)cc2)[nH]c(=O)[nH]1 [HPUra, hydroxyphenylaza-uracil]
Inhibition of Gram positive PolC [1]: inhibited

O=c1cc(Nc2ccc3c(c2)CCC3)[nH]c(=O)[nH]1 [TMAU, trimethylanilino-uracil]
Inhibition of synthesis (formation of RFII product) ([2]; 100 μM TMAU, in the presence of τδδ′/β): not affected | Inhibition of synthesis (formation of RFII product) ([2]; TMAU, in the absence of τδδ′/β (not shown)): not affected | Inhibition of synthesis (formation of RFII product) [3]: prevented from forming the RFII product

B1: S. aureus beta: S. aureus beta subunit encoded by dnaN, SEQ. ID. No. 10, sliding clamp (protein)
chain: MMEFTIKRDYFITQLNDTLKAISPRTTLPILTGIKIDAKEHEVILTGSDSEISIEITIPKTVDGEDIVNISETGSVVLPGRFFVDIIKKLPGKDVKLSTNEQFQTLITSGHSEFNLSGLDPDQYPLLPQVSRDDAIQLSVKVLKNVIAQTNFAVSTSETRPVLTGVNWLIQENELICTATDSHRLAVRKLQLEDVSENKNVIIPGKALAELNKIMSDNEEDIDIFFASNQVLFKVGNVNFISRLLEGHYPDTTRLFPENYEIKLSIDNGEFYHAIDRASLLAREGGNNVIKLSTGDDVVELSSTSPEIGTVKEEVDANDVEGGSLKISFNSKYMMDALKAIDNDEVEVEFFGTMKPFILKPKGDDSVTQLILPIRTY
modifications: left off: small tags and cut ends
notes: ID; No. 10, sliding clamp
Stimulation of polymerase DNA synthesis [4]: 5-6 fold | Stimulation of polymerase DNA synthesis [5]: about 5 fold

From US7432365B1, “DNA molecules encoding beta clamp proteins of gram positive bacteria” (priority 1998, dated 2008)
